Measurements taken from patent US12162935B2, “Regimens, compositions and methods with capsaicin and TNF-alpha inhibitor” (priority 2018, dated 2024).

What was measured:
Wistar rats [1] = experiment: ABR threshold shifts, noise induced hearing loss (NIHL); format: in vivo, rat
Method: Male Wistar rats (150-250 gm) were used for this study under an animal care protocol approved by the Laboratory and Animal Care and Use Committee (SIU School of Medicine). Pre-treatment ABRs were performed. Animals were then treated according to the experimental paradigm. Prevention strategy: consisted of administration of ETA either intra-tympanic ally (IT) (250 μg/50 μl) or subcutaneously (sc) (3 mg/kg) or PBS (IT-50 μl or sc-1 ml) either 3 days or 7 days prior to noise exposure (NE).
Animals were exposed to noise (NE), and then provided ETA treatments either IT or SC at either 2 h or 24 h post noise injury. Post treatment ABR thresholds were determined at 21 days post noise exposure and cochleae were excised for morphological, molecular and biochemical studies. Cochleae used for RNA preparations were flushed immediately with RNA later and kept in RNA later for 24 h at 4° C. Those used for immunohistochemical studies were perfused and fixed with 4% paraformaldehyde, while those used for Scanning electron microscopy (SEM) were perfused and fixed with 2.5% glutaraldehyde. Cochleae used for whole mounts were decalcified for 7-10 days in 100 mM EDTA at room temperature.
Male Wistar rats were exposed to octave band noise at 122 dB centered at 16 kHz for 1 h under isofluorane anesthesia, with the 3 inch silicon tubes attached to the high frequency transducer resting in the middle ear cavity. This exposure typically results in a 30-50 dB temporary threshold shift (measured as an immediate pre-to-post noise exposure shift in ABR thresholds) across all frequencies; with slightly more elevation at those frequencies around 16 kHz and 20-40 dB permanent threshold shift measured at 21 days post noise exposure at all frequencies. Acoustic stimuli are calibrated using a cloth model rat and a Bruel & Kjaer Pulse System with a ½ inch free-field microphone (B&K model 4191). Baseline noise levels in the test chamber (with background test noise turned off) are typically measured below 20 dB SPL in the 4-40 kHz range.
Pre-treatment ABR thresholds were determined using the high frequency Intelligent Hearing Systems (IHS) on naive rats prior to any treatment or noise exposure for each ear. Animals were tested with a stimulus intensity series that was initiated at 0 dB sound pressure level (SPL) and reached a maximum at 90 dB SPL. The stimulus intensity levels were increased in 10 dB increments, and the evoked ABR waveforms were observed on a video monitor. The auditory stimuli included tone bursts at 8, 16, and 32 kHz with a 10 msec plateau and a 1 msec rise/fall time presented at a rate of 5/sec. Threshold was defined as the lowest intensity capable of evoking a reproducible, visually detectable response with two distinct waveforms and minimum amplitude of 0.5 μV.
Preconditioning of the TRPV1 receptor in the rat cochlea by oral administration of capsaicin is shown here to protect from NIHL. Male Wistar rats weighing 200-250 gms were used. ABRs from naïve rats were recorded. Rats were then treated with oral phosphate buffered saline (PBS—1 ml) or capsaicin (1 ml of 20 mg/ml) starting 24 hrs prior to NE, on the day of NE, and 24 hrs post NE. The final ABRs were recorded 21 days post NE. Cochleae were collected for various biochemical tests and immunohistochemistry. At least 6 animals were used per treatment group. NE caused an ABR threshold shift of 21.6±1.7, 35.5±1.9 and 43.9±2.3 dB threshold shift at 8, 16 and 32 kHz respectively. Oral capsaicin treatment completely protects from NIHL (3.9±1.4, 6.1±1.8 and 8.9±2.1 dB threshold shift at 8, 16 and 32 kHz respectively), there is no significant change in ABR threshold shift compared to control. […] Statistical significance was calculated using one way ANOVA with Tukey's post-hoc analyses, p<0.05 (FIG. 16.A.).
ABR measurements were conducted in naïve male Wistar rats. […]

rat cochlea = experiment: Cochlear gene expression by qPCR after noise exposure; format: in vivo
Method: Cochleae were pared down to the bone, crushed in liquid nitrogen followed by extraction in 500 μl of TRI reagent. 0.1 ml of chloroform was added, and the tube was shaken vigorously for 15 seconds and centrifuged at 12,000×g for 15 min. RNA was extracted by washing the pellet with 0.5 ml ice-cold isopropanol followed by cold 75% treated ethanol. The ethanol was removed and the tube was air dried briefly. The RNA pellet was resuspended in nuclease free water and RNA levels were determined using optical density readings corresponding to wavelengths of 260 nm, 280 and 320 nm using a spectrophotometer (Eppendorf BioPhotometer, Hamburg, Germany).
500 ng of total RNA was converted to cDNA using iScript cDNA Synthesis Kit (Bio-Rad, Hercules, CA). The reaction mixture was set up as follows: Ing of total RNA, 4 μl of iScript reaction mix, 1 μl of iScript reverse transcriptase, nuclease free water to bring the total volume to 20 μl. The reaction mix was incubated at 25° C. for 5 min, 42° C. for 30 minutes and 85° C. for 5 minutes. This cDNA reaction mix was used for real time PCR, as described previously [Mukherjea et al., 2006]. Gene specific primer pairs were used for the various reactions and mRNA expression levels were normalized to the levels of GAPDH. The primer sets were purchased from Sigma Genosys (St. Louis, MO), and were as follows: […]

Wistar rats [2] = experiment: Restoration of hearing after permanent threshold shifts (Example 10B); format: in vivo, rat; settings: treatment after PTS at 4 weeks; oral capsaicin 5 mg/kg 3 days, ETA 1 mg/kg s.c. day 2, three weeks
Method: FIG. 23A is a schematic showing the experimental paradigm used in Example 10B. Pre-treatment baseline ABRs were performed in naïve male Wistar rats. The rats were then used either as sham controls (no noise exposure) or exposed-noise (122 dB, OBN centered at 16 kHz for 1 hour). Post noise exposure ABRs were repeated at 4 weeks to establish permanent threshold shifts (PTS). […] Final ABR threshold values were evaluated at week 9 post noise exposure.
Values shown in FIGS. 23A-23C and otherwise provided with respect to this Example 10B are expressed as the mean±SEM. Statistical significance was analyzed using the ANOVA and Tukey's host hoc analysis.

[3] = 25 mg ETA twice a week for 24 weeks; Matteson et al.; cited from earlier work
[4] = TT ETA rescue at 24 hours post NE
[5] = TT ETA rescue within 2 hours post NE
[6] = TT-ETA 250 μg/50 μl, 3 day pre-treatment, 21 days post NE
[7] = s.c. ETA rescue at 24 hours post NE
[8] = s.c. ETA rescue within 2 hours post NE
[9] = subcutaneous ETA 3 mg/kg, 3 day pre-treatment, 21 days post NE

Substance: etanercept
- increase in hearing threshold (hearing loss) (Wistar rats [1]; ETA pre-treatment sc or TT, 3 or 7 days prior to NE (FIG. 17.A)): 5-10 dB
- threshold shifts (Wistar rats [1]; TT ETA at 2 h post NE (FIG. 17.B)): 20-37.5 dB
- ABR threshold shift at 8 kHz (Wistar rats [1]; [4]): 22.5±2.9 dB
- ABR threshold shift at 16 kHz (Wistar rats [1]; [4]): 31.25±3.2 dB
- ABR threshold shift at 32 kHz (Wistar rats [1]; [4]): 37.5±3.7 dB
- ABR threshold shift at 8 kHz (Wistar rats [1]; [5]): 20±2.6 dB
- ABR threshold shift at 16 kHz (Wistar rats [1]; [5]): 30±2.7 dB
- ABR threshold shift at 32 kHz (Wistar rats [1]; [5]): 33.75±2.7 dB
- ABR threshold shift at 8 kHz (Wistar rats [1]; TT ETA, 7 day pretreatment): 16.25±3.25 dB
- ABR threshold shift at 16 kHz (Wistar rats [1]; TT ETA, 7 day pretreatment): 16.25±3.75 dB
- ABR threshold shift at 32 kHz (Wistar rats [1]; TT ETA, 7 day pretreatment): 16.25±4.6 dB
- ABR threshold shift at 8 kHz (Wistar rats [1]; [6]): 1.25±1.25 dB
- ABR threshold shift at 16 kHz (Wistar rats [1]; [6]): 0 dB
- ABR threshold shift at 32 kHz (Wistar rats [1]; [6]): 3.75±1.8 dB
- Wave 1 amplitude versus sound intensity (Wistar rats [1]; capsaicin 5 mg/kg oral, ETA 1 mg/kg, noise exposure (FIG. 18.B)): partial restoration
- ABR threshold shift at 8 kHz (Wistar rats [1]; s.c ETA, 7 day pretreatment): 12.5±3.6 dB
- ABR threshold shift at 16 kHz (Wistar rats [1]; s.c ETA, 7 day pretreatment): 15±5 dB
- ABR threshold shift at 32 kHz (Wistar rats [1]; s.c ETA, 7 day pretreatment): 16.25±5.3 dB
- ABR threshold shift at 8 kHz (Wistar rats [1]; [7]): 21.25±3.9 dB
- ABR threshold shift at 16 kHz (Wistar rats [1]; [7]): 22.5±4.9 dB
- ABR threshold shift at 32 kHz (Wistar rats [1]; [7]): 26.25±5.6 dB
- ABR threshold shift at 8 kHz (Wistar rats [1]; [8]): 9.16±2.6 dB
- ABR threshold shift at 16 kHz (Wistar rats [1]; [8]): 15.8±4.5 dB
- ABR threshold shift at 32 kHz (Wistar rats [1]; [8]): 20.8±6.0 dB
- ABR threshold shift at 8 kHz (Wistar rats [1]; [9]): 4±1.6 dB
- ABR threshold shift at 16 kHz (Wistar rats [1]; [9]): 8±2.5 dB
- ABR threshold shift at 32 kHz (Wistar rats [1]; [9]): 11±18 dB
- threshold shift (Wistar rats [1]; subcutaneous ETA at 2 h post NE (FIG. 17.B)): 10-25 dB
- TRPV1, TNF-α and COX2 expression (rat cochlea; ETA rescue by TT injection at 24 hours): unable to decrease the TRPV1, TNF-α and COX2 to basal levels
- NE induced up regulation of TRPV1, TNF-α, NOX3, COX2, iNOS and Bax (rat cochlea; pretreatment with ETA): prevents the NE induced up regulation
- average hearing threshold shifts at 9 weeks (Wistar rats [2]): 25-38 dB
- side effects [3]: no side effects
